{"source": "patent US9695218B2", "about": "“Pharmaceutical composition for preventing or treating ocular surface disease” (INJE UNIVERSITY INDUSTRY-ACADEMIC COOPERATION FOUNDATION, priority 2014, dated 2017)", "type_in_all_cases": "in vivo, New Zealand white rabbits", "key": {"NF-κB": {"system": "NF-κB", "assay": "Immunohistochemistry of NF-κB in alkaline burn rabbit cornea", "settings": "10 mg/mL instilled 4 times per day, 10th day, compared to peptide I treatment", "protocol": "(§1) Ocular tissue sections of an alkaline burn animal model were cut to a thickness of 6 μm, and then, the tissue sections were used for immunohistochemical analysis.\n(§2) First, the tissue sections were fixed in 3.5% paraformaldehyde, permeabilized with 0.1% Triton X-100, blocked with 2% bovine serum albumin (BSA; all from Sigma, St. Louis, Mo.), and incubated overnight with the following primary antibodies; anti-CD31 (1:1,000; Abcam Inc., Cambridge, Mass.), anti-MMP-9, anti-ICMA-1, anti-VCAM-1 (1:1,000; from Bioss Antibodies, Woburn, Mass.), anti-TNFα, anti-NF-κB (1:1,000; all from biorbyt LLC, San Franciso, Calif.) anti-macrophage/monocyte (Abnova Crop., Taipei, Taiwan), and anti-VEGF-A (Abbiotec, San Diego, Calif.).\n(§3) Next, the tissue sections were incubated with a secondary antibody for 45 minutes. The immunological reactions therein were visualized with diaminobenzidine (DAB) chromogen, and the tissue sections were counterstained with Mayer's hematoxylin (Sigma) for 30 seconds at room temperature.\n(§4) The sections were photographed with a virtual microscope (virtual microscope; NanoZoomer 2.0 RS, Hamamatsu, Japan).\n(§5) The rabbits were randomly divided into three groups: the alkaline burn group (n=5), the peptide I group (n=5), and the peptide II group (n=5). […]"}, "CD31": {"system": "CD31", "assay": "Immunohistochemistry of angiogenic marker CD31 in alkaline burn rabbit cornea", "settings": "10 mg/mL instilled 4 times per day, 10th day, compared with the peptide I group", "protocol": "as §1, §2, §3, §4, §5"}, "[1]": {"system": "cornea of alkaline burn rabbit", "assay": "Clinical evaluation of corneal angiogenesis and opacification in corneal alkaline burn rabbit model", "settings": "10 mg/mL instilled 4 times per day for 10 days, day 17 after alkaline burn; for corneal opacity score (graded 0 through 3): mean±SD, n=5, saline control 3.0±0.0", "protocol": "(§6) 15 New Zealand white rabbits weighing between 2.0 kg and 2.5 kg were purchased from Samtako (Osan, Korea), and then, were subjected to systemic anesthesia by intramuscular injection of a mixture of ketamine hydrochloride (30 mg/kg body weight, Huons, Jecheon, Korea) and xylazine hydrochloride (2.5 mg/kg, Bayer Korea Ltd., Seoul, Korea) and to topical anesthesia by Alcaine propracaine eye drops (Alcon Inc., Seoul, Korea).\n(§7) Afterwards, alkaline burn model was developed by applying an 8 mm filter paper soaked in 1 N NaOH to the right central corneas of rabbits for 1 minute. 7 days later, an increase in corneal angiogenesis and corneal opacity upon alkaline burns was confirmed.\n(§8) The rabbits were randomly divided into three groups: the alkaline burn group (n=5), the peptide I group (n=5), and the peptide II group (n=5). The alkaline burn group was treated with saline instilled thereto 4 times per day, the peptide I group was treated with 10 mg/mL of peptide SEQ ID NO: 1 instilled thereto 4 times per day, and the peptide II was treated with 10 mg/mL of peptide SEQ ID NO: 2 instilled thereto 4 times per day. The left eyes were used as controls.\n7 days after the corneal alkaline burns, clinical evaluation of corneal angiogenesis and opacification was performed.\nFirst, the extent of corneal angiogenesis was scored from 0 through 3, where 0 denotes no angiogenesis, 1 denotes angiogenesis confined to the corneal periphery, 2 denotes angiogenesis extending up to the pupil margin, and 3 denotes angiogenesis extending beyond the pupil margin into the central cornea. In eyes where significant opacification or extensive symblepharon formation caused difficulties in evaluating corneal angiogenesis, a score of 3 was assigned.\nIn addition, the severity of corneal opacification was graded from 0 through 3, where 0 denotes clear cornea with iris details clearly visualized, 1 denotes partial obscuration of the iris details, 2 denotes iris details poorly seen with the pupil margin just visible, and 3 denotes complete obscuration of iris and pupil details. […]"}, "macrophages": {"system": "macrophages", "assay": "Immunohistochemistry of macrophages in alkaline burn rabbit cornea", "settings": "10 mg/mL instilled 4 times per day, 10th day", "protocol": "as §1, §2, §3, §4, §5"}, "MMP-9": {"system": "MMP-9", "assay": "Immunohistochemistry of inflammatory marker MMP-9 in alkaline burn rabbit cornea", "settings": "10 mg/mL instilled 4 times per day, 10th day, compared to the peptide I group", "protocol": "as §1, §2, §3, §4, §5"}, "[2]": {"system": "cornea of alkaline burn rabbit", "assay": "Corneal thickness of H&E-stained tissue sections in corneal alkaline burn rabbit model", "settings": "10th day after treatment, 10 mg/mL instilled 4 times per day, normal 628.0±13.2, alkali burn control 1078.0±30.8", "protocol": "as §6, §7\nThe rabbits were randomly divided into three groups: the alkaline burn group (n=5), the peptide I group (n=5), and the peptide II group (n=5). The alkaline burn group was treated with saline instilled thereto 4 times per day, the peptide I group was treated with 10 mg/mL of peptide SEQ ID NO: 1 instilled thereto 4 times per day, and the peptide II was treated with 10 mg/mL of peptide SEQ ID NO: 2 instilled thereto 4 times per day. The left eyes were used as controls. […]\nThe corneal thickness of the tissue sections was measured using photographs obtained by the H&E staining and taken with a virtual microscope (NanoZoomer 2.0 RS, Hamamatsu, Japan) according to the NDP view program (Hamamatsu, USA)."}, "ICAM-1": {"system": "ICAM-1", "assay": "Immunohistochemistry of inflammatory marker ICAM-1 in alkaline burn rabbit cornea", "settings": "10 mg/mL instilled 4 times per day, 10th day", "protocol": "as §1, §2, §3, §4, §5"}, "[3]": {"system": "cornea of alkaline burn rabbit", "assay": "H&E staining for histological changes in cornea following alkaline burn", "settings": "10th day after treatment, 10 mg/mL instilled 4 times per day", "protocol": "as §6, §7, §8\n(§9) On the 10th day after the treatment as described above, the H&E staining, the Masson's trichrome staining, and immunohistochemistry were performed to observe the fibrosis, angiogenesis, inflammation, and structural changes of the cornea. […]"}, "VEGF": {"system": "VEGF", "assay": "Immunohistochemistry of angiogenic marker VEGF in alkaline burn rabbit cornea", "settings": "10 mg/mL instilled 4 times per day, 10th day, compared with the peptide I group", "protocol": "as §1, §2, §3, §4, §5"}, "TNFα": {"system": "TNFα", "assay": "Immunohistochemistry of inflammatory marker TNFα in alkaline burn rabbit cornea", "settings": "10 mg/mL instilled 4 times per day, 10th day", "protocol": "as §1, §2, §3, §4, §5"}, "[4]": {"system": "fibroblast in the stroma of alkaline burn rabbit cornea", "assay": "Masson's trichrome staining for fibrotic changes of the cornea following alkali burns", "settings": "10th day after treatment, 10 mg/mL instilled 4 times per day", "protocol": "as §6, §7, §8, §9"}, "VCAM-1": {"system": "VCAM-1", "assay": "Immunohistochemistry of inflammatory marker VCAM-1 in alkaline burn rabbit cornea", "settings": "10 mg/mL instilled 4 times per day, 10th day", "protocol": "as §1, §2, §3, §4, §5"}}}
{"substance": "GQDGLAGPK (Collagen type II, alpha 1) [peptide II, collagen type II α1 based peptide isolated from chondrocyte-derived extracellular matrix (CDEM), synthesized]", "values": [{"measurement": "expression of NF-κB in stroma", "setting": "NF-κB", "value": "decreased"}, {"measurement": "expression of CD31 in epithelium, subepithelium and stroma", "setting": "CD31", "value": "significantly decreased"}, {"measurement": "corneal angiogenesis (scored 0 through 3)", "setting": "[1]; compared to the control group (2.7±0.5)", "value": "decreased angiogenesis"}, {"measurement": "corneal opacity score (graded 0 through 3)", "setting": "[1]", "value": "1.9±0.6"}, {"measurement": "expression of macrophages", "setting": "macrophages", "value": "effectively suppressed"}, {"measurement": "expression of MMP-9", "setting": "MMP-9", "value": "suppressed"}, {"measurement": "corneal thickness", "setting": "[2]", "value": "876.0±37.0", "unit": "μm"}, {"measurement": "expression of ICAM-1", "setting": "ICAM-1", "value": "decreased"}, {"measurement": "histological alterations (epithelial proliferation, infiltration of inflammatory cells, stromal edema, angiogenesis; H&E)", "setting": "[3]", "value": "improved"}, {"measurement": "expression of VEGF in epithelium, subepithelium and stroma", "setting": "VEGF", "value": "significantly decreased"}, {"measurement": "expression of TNFα", "setting": "TNFα", "value": "decreased"}, {"measurement": "fibrotic changes / population of fibroblast in stroma (Masson's trichrome)", "setting": "[4]", "value": "significantly suppressed the population of fibroblast"}, {"measurement": "expression of VCAM-1", "setting": "VCAM-1", "value": "decreased"}]}
{"substance": "GDRGD (Collagen type I, alpha 1) [peptide I, collagen type I α1 based peptide from CDEM, synthesized; used as comparative group]", "values": [{"measurement": "corneal opacity score (graded 0 through 3)", "setting": "[1]", "value": "2.1±0.3"}, {"measurement": "corneal thickness", "setting": "[2]", "value": "1066.0±31.7", "unit": "μm"}, {"measurement": "histological alterations (epithelial proliferation, infiltration of inflammatory cells, stromal edema, angiogenesis; H&E)", "setting": "[3]", "value": "little effect"}, {"measurement": "fibrotic changes / population of fibroblast in stroma (Masson's trichrome)", "setting": "[4]", "value": "little effect on the fibrotic changes"}]}
